In the first assay the target is T1, recombinant autotaxin (Homo sapiens, UniProt Q13822).
T1 construct: made in house; host or cells: Hi5 insect cells (baculovirus)
As to the kind of experiment: Autotaxin assay (Amplex Red fluorescence, LPC substrate). Format: biochemical. The conditions noted are these: percent of uninhibited control (100%) at 1E−05 M compound. How it is done:
Autotaxin activity is measured indirectly by means of Amplex Red Reagent. In this course, Amplex Red is measured as fluorogenic indicator for generated H2O2. Autotaxin converts substrate lysophosphatidylcholine (LPC) to phosphocholine and lysophosphatidylic acid (LPA). After the conversion phosphocholine is reacted with alkaline phosphatase to obtain inorganic phosphate and choline. During the next step choline is oxidized with choline oxidase to yield betaine, whereby H2O2 is generated. H2O2 reacts with Amplex Red Reagent in the presence of peroxidase (Horseradish peroxidase) in an 1:1 stochiometry and yields highly fluorescent resorufin. The generated fluorescence is measured in a reaction-dependent kinetic mode in order to enable subtraction of fluorescence signals of possible other fluorescent compounds that are not part of the reaction from total measured fluorescence.
1.5 μl of a standard solution or of the compounds of the invention are dissolved in 20 mM Hepes pH 7.2 with maximally 7.7% DMSO in individual concentrations. The resulting solution is pre-incubated together with 10 μl (16 ng) of highly purified recombinant autotaxin in a black 384-hole microtiter plate for 30 min at 22° C.
Thereafter, the reaction is started through the addition of 5 μl L-a-lysophosphatidyl-choline (LPC), whereby the final concentration of LPC is 75 μM. The mixture is incubated for 90 min. at 37° C. After the incubation Amplex Red Reagent, peroxidase (Horseradish peroxidase) and choline oxidase are added. The fluorescence is immediately measured at a wavelength of 612 nm with an excitation wavelength of 485 nm in a “Tecan Ultra multimode” fluorescence reader. The activity of autotaxin is indirectly calculated via the amount of detected generated H2O2.
For IC50 analysis, ten serial 1:3 dilutions starting at 30 μM for each compound were run in duplicates.
IC50 values were calculated on normalized data. For normalization, control wells were added to each assay plate and the signal of uninhibited control wells was set to 100%, whereas the signal inhibited by 500 μM C14 LPA, (Avanti Polar Lipids, Cat#857120P) was set to 0%. Curves were fitted and IC50 values calculated by the following model using proprietory analysis software: Y=Bottom+(100−Bottom)/(1+10^((Log IC50−X)*HillSlope))
Where X is the logarithm of concentration. Y is the response;
Y starts at Bottom and goes to Top with a sigmoid shape.
Protein: Recombinant autotaxin (baculoviral Hi5 expression)
Substrate: L-a-lysophosphatidyl choline (chicken egg); Avanti Polar Lipids #830071P
Standard: C14 LPA, Avanti Polar Lipids, Cat#857120P
Detection Reagent Amplex Red Reagent; Invitrogen #A12222; dissolved in 1.923 ml of DMSO peroxidase Type VI-A (horseradish), Sigma #P6782; dissolved in 7.45 ml of test buffer, Choline Oxidase; Sigma #C5896; dissolved in 2.47 ml test buffer
Detection Reagent Mix: 1:100 dilution of Amplex Red Regent in test buffer
Test buffer: 200 mM Tris-HCl, Merck, Cat #1.08219, pH 7.9; 0.1% BSA, lipid free, Roche Cat#775835
Regarding `NC(=O)c1c(NC(=O)Cc2ccc(Cl)cc2F)sc2c1CCN(Cc1ccccn1)C2` [Compound 17, 2-[2-(4-Chloro-2-fluoro-phenyl)-acetylamino]-6-pyridin-2-ylmethyl-4,5,6,7-tetrahydro-thieno[2,3-c]pyridine-3-carboxylic acid amide], the “% CTRL (1E−05)” value is 66%.

For `NC(=O)c1c(NC(=O)Nc2ccc(Cl)cc2)sc2c1CCN(Cc1ccccn1)C2` [Compound 18, 2-[3-(4-Chloro-phenyl)-ureido]-6-pyridin-2-ylmethyl-4,5,6,7-tetrahydro-thieno[2,3-c]pyridine-3-carboxylic acid amide], the “% CTRL (1E−05)” value is given as 88%.

Staying with this assay, now noted: ten serial 1:3 dilutions starting at 30 μM, duplicates; 75 μM LPC; values given as upper bounds.
Turning to `NC(=O)c1c(NC(=O)Nc2ccc(Cl)cc2)sc2c1CCN(C(=O)c1ccc3[nH]nnc3c1)C2` [Compound 1, 6-(1H-Benzotriazole-5-carbonyl)-2-[3-(4-chloro-phenyl)-ureido]-4,5,6,7-tetrahydro-thieno[2,3-c]pyridine-3-carboxylic acid amide], the IC50 is under 1000 nM.

As for `NC(=O)c1c(NC(=O)Nc2ccc(Cl)cc2)sc2c1CCN(C(=O)c1ccc3[nH]c(=O)oc3c1)C2` [Compound 2, 2-[3-(4-Chloro-phenyl)-ureido]-6-(2-oxo-2,3-dihydro-benzooxazole-6-carbonyl)-4,5,6,7-tetrahydro-thieno[2,3-c]pyridine-3-carboxylic acid amide], the IC50 is under 1000 nM.

For `NC(=O)c1c(NC(=O)Nc2ccc(C(F)(F)F)cc2)sc2c1CCN(C(=O)c1ccc3[nH]nnc3c1)C2` [Compound 3, 6-(1H-Benzotriazole-5-carbonyl)-2-[3-(4-trifluoromethyl-phenyl)-ureido]-4,5,6,7-tetrahydro-thieno[2,3-c]pyridine-3-carboxylic acid amide], the IC50 was under 1000 nM.

Turning to `CC(C)c1ccc(NC(=O)Nc2sc3c(c2C(N)=O)CCN(C(=O)c2ccc4[nH]nnc4c2)C3)cc1` [Compound 4, 6-(1H-Benzotriazole-5-carbonyl)-2-[3-(4-isopropyl-phenyl)-ureido]-4,5,6,7-tetrahydro-thieno[2,3-c]pyridine-3-carboxylic acid amide], the IC50 was under 1000 nM.

As to `NC(=O)c1c(NC(=O)CCc2ccc(Cl)cc2)sc2c1CCN(C(=O)c1ccc3[nH]nnc3c1)C2` [Compound 5, 6-(1H-Benzotriazole-5-carbonyl)-2-[3-(4-chloro-phenyl)-propionylamino]-4,5,6,7-tetrahydro-thieno[2,3-c]pyridine-3-carboxylic acid amide], the half-maximal inhibitory concentration (IC50) was under 1000 nM.

Regarding `NC(=O)c1c(NC(=O)CCc2ccc(Cl)cc2)sc2c1CCN(C(=O)c1ccc3[nH]c(=O)oc3c1)C2` [Compound 6, 2-[3-(4-Chloro-phenyl)-propionylamino]-6-(2-oxo-2,3-dihydro-benzooxazole-6-carbonyl)-4,5,6,7-tetrahydro-thieno[2,3-c]pyridine-3-carboxylic acid amide], the IC50 was under 1000 nM.

Take `CC(C)c1ccc(NC(=O)Nc2sc3c(c2C(N)=O)CCN(C(=O)c2ccc4[nH]c(=O)oc4c2)C3)cc1` [Compound 7, 2-[3-(4-Isopropyl-phenyl)-ureido]-6-(2-oxo-2,3-dihydro-benzooxazole-6-carbonyl)-4,5,6,7-tetrahydro-thieno[2,3-c]pyridine-3-carboxylic acid amide]: the IC50 is under 1000 nM.

As to `NC(=O)c1c(NC(=O)Nc2cc(Cl)cc(Cl)c2)sc2c1CCN(C(=O)c1ccc3[nH]c(=O)oc3c1)C2` [Compound 8, 2-[3-(3,5-Dichloro-phenyl)-ureido]-6-(2-oxo-2,3-dihydro-benzooxazole-6-carbonyl)-4,5,6,7-tetrahydro-thieno[2,3-c]pyridine-3-carboxylic acid amide], the IC50 was under 10000 nM.

Regarding `NC(=O)c1c(NC(=O)Cc2ccc(Cl)cc2F)sc2c1CCN(C(=O)c1ccc3[nH]nnc3c1)C2` [Compound 9, 6-(1H-Benzotriazole-5-carbonyl)-2-[2-(4-chloro-2-fluoro-phenyl)-acetylamino]-4,5,6,7-tetrahydro-thieno[2,3-c]pyridine-3-carboxylic acid amide], the IC50 is under 1000 nM.

As to `NC(=O)c1c(NC(=O)Cc2ccc(Cl)cc2F)sc2c1CCN(C(=O)c1ccc3[nH]c(=O)oc3c1)C2` [Compound 10, 2-[2-(4-Chloro-2-fluoro-phenyl)-acetylamino]-6-(2-oxo-2,3-dihydro-benzooxazole-6-carbonyl)-4,5,6,7-tetrahydro-thieno[2,3-c]pyridine-3-carboxylic acid amide], the IC50 was under 1000 nM.

For `NC(=O)c1c(NC(=O)Cc2cccc(Cl)c2)sc2c1CCN(C(=O)c1ccc3[nH]nnc3c1)C2` [Compound 11, 6-(1H-Benzotriazole-5-carbonyl)-2-[2-(3-chloro-phenyl)-acetylamino]-4,5,6,7-tetrahydro-thieno[2,3-c]pyridine-3-carboxylic acid amide], the IC50 was under 1000 nM.

With `NC(=O)c1c(NC(=O)Nc2cc(Cl)cc(Cl)c2)sc2c1CCN(C(=O)c1ccc3[nH]nnc3c1)C2` [Compound 12, 6-(1H-Benzotriazole-5-carbonyl)-2-[3-(3,5-dichloro-phenyl)-ureido]-4,5,6,7-tetrahydro-thieno[2,3-c]pyridine-3-carboxylic acid amide], the IC50 is under 10000 nM.

As to `NC(=O)c1c(NC(=O)Cc2cccc(Cl)c2)sc2c1CCN(C(=O)c1ccc3[nH]c(=O)oc3c1)C2` [Compound 13, 2-[2-(3-Chloro-phenyl)-acetylamino]-6-(2-oxo-2,3-dihydro-benzooxazole-6-carbonyl)-4,5,6,7-tetrahydro-thieno[2,3-c]pyridine-3-carboxylic acid amide], the IC50 is under 1000 nM.

For `NC(=O)c1c(NC(=O)Cc2ccc(Cl)cc2)sc2c1CCN(C(=O)c1ccc3[nH]c(=O)oc3c1)C2` [Compound 14, 2-[2-(4-Chloro-phenyl)-acetylamino]-6-(2-oxo-2,3-dihydro-benzooxazole-6-carbonyl)-4,5,6,7-tetrahydro-thieno[2,3-c]pyridine-3-carboxylic acid amide], the IC50 was under 1000 nM.

As for `NC(=O)c1c(NC(=O)Nc2ccc(Cl)cc2F)sc2c1CCN(C(=O)c1ccc3[nH]nnc3c1)C2` [Compound 15, 6-(1H-Benzotriazole-5-carbonyl)-2-[3-(4-chloro-2-fluoro-phenyl)-ureido]-4,5,6,7-tetrahydro-thieno[2,3-c]pyridine-3-carboxylic acid amide], the IC50 is under 1000 nM.

On to `NC(=O)c1c(NC(=O)Cc2ccc(Cl)cc2F)sc2c1CCN(Cc1cccnc1)C2` [Compound 16, 2-[2-(4-Chloro-2-fluoro-phenyl)-acetylamino]-6-pyridin-3-ylmethyl-4,5,6,7-tetrahydro-thieno[2,3-c]pyridine-3-carboxylic acid amide], for which the IC50 is under 30000 nM.

In the case of `NC(=O)c1c(NC(=O)Nc2ccc(Cl)cc2)sc2c1CCN(C(=O)c1cccnc1)C2` [Compound 19, 2-[3-(4-Chloro-phenyl)-ureido]-6-(pyridine-3-carbonyl)-4,5,6,7-tetrahydro-thieno[2,3-c]pyridine-3-carboxylic acid amide], the IC50 was under 10000 nM.

Turning to `NC(=O)c1c(NC(=O)Nc2ccc(Cl)cc2)sc2c1CCN(Cc1ccncc1)C2` [Compound 20, 2-[3-(4-Chloro-phenyl)-ureido]-6-pyridin-4-ylmethyl-4,5,6,7-tetrahydro-thieno[2,3-c]pyridine-3-carboxylic acid amide], the half-maximal inhibitory concentration (IC50) is under 10000 nM.

Consider `NC(=O)c1c(NC(=O)Cc2ccc(Cl)cc2F)sc2c1CCN(Cc1ccncc1)C2` [Compound 21, 2-[2-(4-Chloro-2-fluoro-phenyl)-acetylamino]-6-pyridin-4-ylmethyl-4,5,6,7-tetrahydro-thieno[2,3-c]pyridine-3-carboxylic acid amide], for which the IC50 is under 10000 nM.

In the case of `NC(=O)c1c(NC(=O)Cc2ccc(Cl)cc2F)sc2c1CCN(C(=O)Cc1cccnc1)C2` [Compound 22, 2-[2-(4-Chloro-2-fluoro-phenyl)-acetylamino]-6-(2-pyridin-3-yl-acetyl)-4,5,6,7-tetrahydro-thieno[2,3-c]pyridine-3-carboxylic acid amide], the IC50 was under 10000 nM.

The record behind these values is US8497283B2, “Autotaxin inhibitors” (Merck Patent GmbH, priority 2009, dated 2013).
